# Test results: ChEMBL document CHEMBL3352388, “Active compounds from a diverse library of triazolothiadiazole and triazolothiadiazine scaffolds: synthesis, crystal structure determination, cytotoxicity, cholinesterase inhibitory activity, and binding mode analysis” (Bioorg Med Chem, 2014)
# Legend:
# Cholinesterase [1] = target: T1, Cholinesterase (Homo sapiens, UniProt P06276); assay: Inhibition of human BChE by Ellman's method
# Vero = assay: Cytotoxicity against African green monkey Vero cells by sulforhodamine B assay; assay type: cell-based; set-up: concentration or dose not given beside the values; details: chlorocebus sabaeus
# NCI-H157 = assay: Cytotoxicity against human NCI-H157 cells by sulforhodamine B assay; assay type: functional, cell-based
# Acetylcholinesterase = Acetylcholinesterase (Electrophorus electricus, UniProt O42275); assay: Inhibition of electric eel AChE by Ellman's method
# Chain of Acetylcholinesterase (O42275 whole entry): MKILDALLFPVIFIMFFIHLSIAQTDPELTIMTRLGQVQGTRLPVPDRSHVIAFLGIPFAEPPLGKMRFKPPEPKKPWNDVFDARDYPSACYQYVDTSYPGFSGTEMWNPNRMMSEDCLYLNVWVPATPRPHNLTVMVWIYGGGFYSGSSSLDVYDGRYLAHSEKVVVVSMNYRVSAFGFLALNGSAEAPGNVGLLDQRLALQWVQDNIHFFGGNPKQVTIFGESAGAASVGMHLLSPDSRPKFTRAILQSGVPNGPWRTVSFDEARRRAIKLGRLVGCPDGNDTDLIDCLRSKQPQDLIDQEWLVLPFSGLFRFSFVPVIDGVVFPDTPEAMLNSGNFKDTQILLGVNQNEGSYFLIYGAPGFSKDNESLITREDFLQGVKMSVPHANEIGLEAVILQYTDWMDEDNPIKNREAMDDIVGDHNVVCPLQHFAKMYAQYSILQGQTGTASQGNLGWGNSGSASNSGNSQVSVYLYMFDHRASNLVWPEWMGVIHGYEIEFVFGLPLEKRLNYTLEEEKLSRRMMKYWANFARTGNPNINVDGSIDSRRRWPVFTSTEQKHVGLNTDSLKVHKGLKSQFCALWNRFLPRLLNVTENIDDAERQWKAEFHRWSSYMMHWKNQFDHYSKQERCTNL
# [2] = target: Acetylcholinesterase (Electrophorus electricus) (UniProt O42275); assay: Inhibition of electric eel AChE at 100 uM by Ellman's method
# Chain of Acetylcholinesterase (Electrophorus electricus) (O42275 24-633 limits assumed): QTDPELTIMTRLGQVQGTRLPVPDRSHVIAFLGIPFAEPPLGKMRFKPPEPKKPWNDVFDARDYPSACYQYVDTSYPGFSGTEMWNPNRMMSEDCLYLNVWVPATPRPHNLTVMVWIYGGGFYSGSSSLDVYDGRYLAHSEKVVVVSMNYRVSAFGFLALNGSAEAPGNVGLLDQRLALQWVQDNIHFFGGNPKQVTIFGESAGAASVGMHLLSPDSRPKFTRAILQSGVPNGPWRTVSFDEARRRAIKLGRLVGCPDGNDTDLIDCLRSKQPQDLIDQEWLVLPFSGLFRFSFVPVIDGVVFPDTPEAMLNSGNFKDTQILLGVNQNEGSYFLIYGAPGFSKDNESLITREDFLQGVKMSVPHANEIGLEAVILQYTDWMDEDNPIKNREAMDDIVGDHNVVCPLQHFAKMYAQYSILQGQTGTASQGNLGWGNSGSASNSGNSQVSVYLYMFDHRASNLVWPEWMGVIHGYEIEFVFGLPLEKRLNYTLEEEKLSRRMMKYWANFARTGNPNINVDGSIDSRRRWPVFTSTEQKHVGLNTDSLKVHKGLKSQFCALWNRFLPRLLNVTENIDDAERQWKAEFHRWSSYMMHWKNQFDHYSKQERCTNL
# Cholinesterase [3] = target: T1, Cholinesterase; assay: Ratio of neostigmine IC50 to compound IC50 for human BChE
# T1 sequence (P06276 whole entry): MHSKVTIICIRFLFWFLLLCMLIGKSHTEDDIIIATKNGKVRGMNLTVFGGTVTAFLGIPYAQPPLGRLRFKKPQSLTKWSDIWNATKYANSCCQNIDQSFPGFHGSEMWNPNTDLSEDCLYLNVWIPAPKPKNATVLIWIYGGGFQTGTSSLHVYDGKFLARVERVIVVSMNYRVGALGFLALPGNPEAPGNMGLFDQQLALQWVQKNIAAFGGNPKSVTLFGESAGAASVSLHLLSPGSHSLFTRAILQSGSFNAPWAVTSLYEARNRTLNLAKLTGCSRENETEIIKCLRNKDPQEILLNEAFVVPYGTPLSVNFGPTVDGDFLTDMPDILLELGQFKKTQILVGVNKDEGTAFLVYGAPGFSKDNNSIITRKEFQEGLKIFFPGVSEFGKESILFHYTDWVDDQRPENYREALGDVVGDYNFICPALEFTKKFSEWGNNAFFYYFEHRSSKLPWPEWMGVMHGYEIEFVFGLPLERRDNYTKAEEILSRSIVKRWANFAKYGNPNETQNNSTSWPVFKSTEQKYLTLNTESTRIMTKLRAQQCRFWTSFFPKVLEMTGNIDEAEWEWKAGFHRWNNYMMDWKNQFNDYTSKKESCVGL
Compound,IC50 (Cholinesterase [1]) [µM],Activity (Vero) [%],IC50 (NCI-H157) [µM],IC50 (Acetylcholinesterase) [µM],inhibition [2] [%],Ratio IC50 (Cholinesterase [3])
Clc1ccc(C2=Nn3c(nnc3-c3cccnc3)SC2)cc1Cl,64.8,22.2,0.96,38.5,–,–
Clc1ccc(C2=Nn3c(nnc3-c3cccnc3)SC2)cc1,9.82,21.1,3.94,15.1,–,–
Cc1ccc(OCc2nn3c(-c4cccnc4)nnc3s2)cc1,4.76,23.8,2.98,11.3,–,–
c1cncc(-c2nnc3sc(-c4ccoc4)nn23)c1,–,28.4,3.41,–,–,–
COc1ccc(OCc2nn3c(-c4cccnc4)nnc3s2)cc1,55.8,24.1,1.95,–,39.5,–
c1cncc(-c2nnc3sc(-c4ccc[nH]4)nn23)c1,13.7,19.2,5.14,13.7,–,–
Fc1ccc(OCc2nn3c(-c4cccnc4)nnc3s2)cc1,–,17.4,1.94,–,–,–
CCOc1ccc(Cc2nn3c(-c4cccnc4)nnc3s2)cc1,70.7,22.5,2.92,–,38.4,–
c1cncc(-c2nnc3sc(-c4ccco4)nn23)c1,6.03,23.9,3.16,21.2,–,–
c1cncc(-c2nnc3n2N=C(c2cccc4ccccc24)CS3)c1,15.9,23.1,5.37,–,17.2,–
Fc1ccc(Cc2nn3c(-c4cccnc4)nnc3s2)cc1,79.9,21.3,1.65,–,32.3,–
O=[N+]([O-])c1ccc(C2=Nn3c(nnc3-c3cccnc3)SC2)cc1,1.09,10.7,1.42,18.3,–,15
CC[C@]1(O)C[C@H]2CN(CCc3c([nH]c4ccccc34)[C@@](C(=O)OC)(c3cc4c(cc3OC)N(C=O)[C@H]3[C@@](O)(C(=O)OC)[C@H](OC(C)=O)[C@]5(CC)C=CCN6CC[C@]43[C@@H]65)C2)C1 [VINCRISTINE],–,16.81,1.03,–,–,–
Cc1occc1-c1nn2c(-c3cccnc3)nnc2s1,58.6,24.3,2.93,37.7,–,–
Fc1ccc(C2=Nn3c(nnc3-c3cccnc3)SC2)cc1,4.92,18.4,1.85,–,40.8,–
Oc1ccccc1OCc1nn2c(-c3cccnc3)nnc2s1,3.02,22.7,3.67,35.5,–,–
CN(C)C(=O)Oc1cccc([N+](C)(C)C)c1 [NEOSTIGMINE],16.3,–,–,–,–,–
Fc1ccc(-c2nn3c(-c4cccnc4)nnc3s2)cc1Cl,10.3,23.6,1.08,–,48.4,–
Cc1ccc(C2=Nn3c(nnc3-c3cccnc3)SC2)cc1,25.4,27.3,3.87,–,28.7,–
Fc1cc(Cl)ccc1-c1nn2c(-c3cccnc3)nnc2s1,37.4,26.7,1.87,–,36.2,–
COc1ccc(C2=Nn3c(nnc3-c3cccnc3)SC2)cc1,0.781,27.8,1.67,–,15.2,23
c1ccc(-c2ccc(C3=Nn4c(nnc4-c4cccnc4)SC3)cc2)cc1,18.9,26.1,4.32,39.7,–,–
Oc1ccc(OCc2nn3c(-c4cccnc4)nnc3s2)cc1,0.585,20.4,3.01,3.09,–,–
Cc1ccccc1OCc1nn2c(-c3cccnc3)nnc2s1,–,20.9,3.29,–,–,–
